Assay [1] concerns the target soluble human BACE1 catalytic domain (Homo sapiens (Human), UniProt P56817). As to the kind of experiment: BACE1 HTRF FRET Assay. Format: biochemical. The following applies: Ki calculated from IC50 using the Cheng-Prusoff equation; QSY7-APPswe-Eu substrate, pH 5.0. The source says: Na^+-Acetate pH 5.0; 1% Brij-35; Glycerol; Dimethyl Sulfoxide (DMSO); Recombinant human soluble BACE1 catalytic domain (>95% pure); APP Swedish mutant peptide substrate (QSY7-APP^swe-Eu): QSY7-EISEVNLDAEFC-Europium-amide.
A homogeneous time-resolved FRET assay can be used to determine IC50 values for inhibitors of the soluble human BACE1 catalytic domain. This assay monitors the increase of 620 nm fluorescence that resulted from BACE1 cleavage of an APPswedish APP^swe mutant peptide FRET substrate (QSY7-EISEVNLDAEFC-Europium-amide). This substrate contains an N-terminal QSY7 moiety that serves as a quencher of the C-terminal Europium fluorophore (620 nm Em). In the absence of enzyme activity, 620 nm fluorescence is low in the assay and increased linearly over 3 hours in the presence of uninhibited BACE1 enzyme Inhibition of BACE1 cleavage of the QSY7-APP^swe-Eu substrate by inhibitors is manifested as a suppression of 620 nm fluorescence.
Varying concentrations of inhibitors at 3× the final desired concentration in a volume of 10 ul are preincubated with purified human BACE1 catalytic domain (3 nM in 10 μl) for 30 minutes at 30° C. in reaction buffer containing 20 mM Na-Acetate pH 5.0, 10% glycerol, 0.1% Brij-35 and 7.5% DSMO. […]

The target of assay [2] is purified human autoBACE-2 (Homo sapiens (Human), UniProt Q9Y5Z0). As to the kind of experiment: BACE-2 Assay (BACE-HTRF assay). It counts as biochemical. Conditions: Ki calculated from IC50 using the Cheng-Prusoff equation; QSY7-EISEVNLDAEFC-Eu-amide substrate, pH 5.0; read-out: BACE2 Ki. As for the experimental part: Inhibitor IC50s at purified human autoBACE-2 are determined in a time-resolved endpoint proteolysis assay that measures hydrolysis of the QSY7-EISEVNLDAEFC-Eu-amide FRET peptide substrate (BACE-HTRF assay). BACE-mediated hydrolysis of this peptide results in an increase in relative fluorescence (RFU) at 620 nm after excitation with 320 nm light Inhibitor compounds, prepared at 3× the desired final concentration in 1×BACE assay buffer (20 mM sodium acetate pH 5.0, 10% glycerol, 0.1% Brij-35) supplemented with 7.5% DMSO are pre-incubated with an equal volume of autoBACE-2 enzyme diluted in 1×BACE assay buffer (final enzyme concentration 1 nM) in black 384-well NUNC plates for 30 minutes at 30° C. […] Following laser excitation of sample wells at 320 nm, the fluorescence signal at 620 nm is collected for 400 ms following a 50 μs delay on a RUBYstar HTRF plate reader (BMG Labtechnologies). […] IC50, are determined by nonlinear regression analysis (sigmoidal dose response, variable slope) of percent inhibition data with minimum and maximum values set to 0 and 100 percent respectively. […] The Ki values are calculated from the IC50 using the Cheng-Prusoff equation.

Each structure is given as a SMILES string. pKi: −log10 of the molar value.

Chain of soluble human BACE1 catalytic domain (P56817 75-416): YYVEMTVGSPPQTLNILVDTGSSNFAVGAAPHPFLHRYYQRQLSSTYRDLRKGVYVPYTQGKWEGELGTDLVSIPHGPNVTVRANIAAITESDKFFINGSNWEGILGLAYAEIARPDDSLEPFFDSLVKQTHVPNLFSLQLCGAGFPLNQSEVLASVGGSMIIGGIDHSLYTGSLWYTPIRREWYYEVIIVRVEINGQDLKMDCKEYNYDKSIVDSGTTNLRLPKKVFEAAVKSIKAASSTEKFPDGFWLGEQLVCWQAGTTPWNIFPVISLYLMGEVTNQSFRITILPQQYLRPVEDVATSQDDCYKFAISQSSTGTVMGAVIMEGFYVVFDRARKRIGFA
Chain of purified human autoBACE-2 (Q9Y5Z0 63-473 limits assumed): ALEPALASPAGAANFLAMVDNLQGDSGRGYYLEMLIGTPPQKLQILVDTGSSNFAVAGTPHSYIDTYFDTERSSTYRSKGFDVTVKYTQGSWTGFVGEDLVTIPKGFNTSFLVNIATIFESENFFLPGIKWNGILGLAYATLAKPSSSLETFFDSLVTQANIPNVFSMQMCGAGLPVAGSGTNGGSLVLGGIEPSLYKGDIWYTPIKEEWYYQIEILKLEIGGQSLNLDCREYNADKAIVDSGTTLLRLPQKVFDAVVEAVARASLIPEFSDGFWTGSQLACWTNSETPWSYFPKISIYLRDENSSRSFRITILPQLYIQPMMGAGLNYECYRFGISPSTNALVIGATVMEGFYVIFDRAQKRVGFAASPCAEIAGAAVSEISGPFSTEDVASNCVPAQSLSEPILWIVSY

With `CCN=S1(=O)C[C@@](C)(c2cc(NC(=O)c3ccc(Cl)cn3)ccc2F)NC(=N)N1C` (stereo partly shown) [Example 5], the results for the pKi in assay [1] and in assay [2] were 8.10 and 8.52, respectively.
On the same counts, the results for `CCN1C(=N)N[C@](C)(c2cc(NC(=O)c3ccc(Cl)cn3)ccc2F)CS1(=O)=NC` (stereo partly shown) [Example 6] are 8.00 and 8.52.

The values are drawn from patent US9428476B2, “S-imino-S-oxo-iminothiadiazine compounds as BACE inhibitors, compositions, and their use” (Merck Sharp & Dohme Corp., priority 2013, dated 2016).
